Assay results as given in publication PMC9820303, “^αN-Acetyl β-Endorphin Is an Endogenous Ligand of σ1Rs That Regulates Mu-Opioid Receptor Signaling by Exchanging G Proteins for σ2Rs in σ1R Oligomers” (International Journal of Molecular Sciences, 2022).
Where a name gives a salt, the structure may show the parent alone. No end group written: not given here.

What was measured:
[1] = test system: CD1 mice (wild-type and σ1R−/−); test: Supraspinal analgesia, warm water (52 °C) tail-flick test; type: in vivo, mouse; conditions: for analgesia of the substance in σ1R−/− mice compared with wild-type: icv: morphine 3 nmol, β-End 1–31 0.5 nmol, DAMGO 0.1 nmol, DPDPE 10 nmol, WIN55,212-2 15 nmol, 8 mice per strain
Protocol: Upper panel: the withdrawal thresholds of the contralateral and ipsilateral paws were measured before (indicated as 0) and up to 14 days after surgery. […] Middle panel: 0.3 and 3 nmol of ^αN-acetyl β-End 1–31 were administered icv 7 days after surgery, and the nociceptive threshold was evaluated at the indicated postinjection intervals (in minutes). For every time interval studied in min or days, * indicates a significant difference from the group that received saline instead of ^αN-acetyl β-End 1–31; ϕ significant difference from the effect of 3 nmol ^αN-acetyl β-End 1–31. […] All data are presented as the mean ± SD of six mice. ANOVA followed by the Holm–Sidak multiple comparisons test, p < 0.05, 1-β > 0.80. […] Upper panel: wild-type mice were injected icv with saline, ^αN-acetyl β-End 1–31 (1 nmol/mouse) or the combination of the σ1R agonist PPCC (3 nmol/mouse) plus ^αN-acetyl β-End 1–31 20 min before morphine and β-End 1–31. Analgesia was evaluated by the warm water (52 °C) tail-flick test at the interval postinjection corresponding to their peak effect, 30 min. Lower panel: σ1R^−/− mice received 1 nmol ^αN-acetyl β-End 1–31, 20 min before morphine and β-End 1–31 and analgesia was evaluated as described above. Eight mice were used per strain and treatment. * Significant difference with respect to the group treated with morphine or β-End 1–31 alone. ANOVA followed by the Holm–Sidak multiple comparisons test, p < 0.05, 1-β > 0.80.
Figure 3 Effect of physiological β-End 1–31 derivatives on morphine and β-End 1–31 analgesia. […] (A) The mice were icv-injected with 25 nmol of β-End 1–26, β-End 1–27 and ^αN-acetylated derivatives 20 min before icv 0.5 nmol β-End 1–31. Analgesia was determined at the indicated postinjection intervals. (B) CD1 wild-type and σ1R^−/− mice were administered C terminal peptide sequences 27–31, 28–31 and 30–31 of β-End 1–31 through an icv injection 20 min before 0.5 nmol of the whole β-End 1–31 and morphine (10 nmols) were injected icv. […] (C) A series of exogenous σ1R ligands (3 nmol) were icv-injected 20 min before 0.5 nmol β-End 1–31 was administered via icv in wild-type mice. The σ1R antagonist S1RA was also icv-injected before β-End 1–31 was administered icv in σ1R^−/− mice. (D) The effects of several doses of S1RA on morphine analgesia were studied in wild-type and σ1R^−/− mice. […] ANOVA followed by the Holm–Sidak multiple comparisons test, p < 0.05, 1-β > 0.80.
(A) The effect of σ1R deletion on opioid- and cannabinoid-induced analgesia. Analgesic compounds were icv-injected into wild-type and σ1R^−/− mice, and analgesia was evaluated 30 min after morphine (3 nmol) and β-End 1–31 (0.5 nmol), 15 min after DAMGO (0.1 nmol) and DPDPE (10 nmol) and 10 min after WIN55,212-2 (15 nmol). The bars are the mean ± SD of eight mice per strain and treatment. * Significant difference with respect to the effect of the analgesic substance in the wild-type group. ANOVA followed by the Holm–Sidak multiple comparisons test, p < 0.05, 1-β > 0.80. (B) Coprecipitation of G proteins with MORs. Solubilized mouse brain cortical membranes enriched in synaptosomes (SBM) from CD1 wild-type (WT) and σ1R^−/− mice were solubilized with sonication in the presence of 1% NP-40. Non-soluble debris was eliminated, and the samples were then incubated overnight at 4 °C with affinity-purified biotinylated IgGs that were raised against extracellular regions of the MOR. Protein complexes that were immunoprecipitated with streptavidin agarose were extensively washed and then resolved by SDS-PAGE.

σ1R-σ2R = σ1R-σ2R (Mus musculus, UniProt O55242); test: In vitro σ1R-σ2R association of recombinant proteins (HaloLink-σ2R, Western blot); type: biochemical, murine; parameters: The coding region of the full-length murine σ1R (AF004927); GST (N, cleaved yes); made in house; host or cells: E. coli BL21 (KRX); conditions: increasing concentrations; 30 min RT; vs control without ligand
σ1R-σ2R, sequence (O55242 whole entry): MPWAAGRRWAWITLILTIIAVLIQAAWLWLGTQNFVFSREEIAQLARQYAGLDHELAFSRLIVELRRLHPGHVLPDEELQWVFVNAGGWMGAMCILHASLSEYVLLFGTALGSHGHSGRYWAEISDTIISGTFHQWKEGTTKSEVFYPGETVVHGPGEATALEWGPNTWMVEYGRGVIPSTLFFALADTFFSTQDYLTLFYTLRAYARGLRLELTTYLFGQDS
Protocol: (§1) Figure 7 Effect of β-End 1–31, ^αN-acetyl β-End 1–31 and their N-terminal derivatives on σ1R-σ2R, σ1R-NR1 C1 and σ1R-BiP associations. Amino acid sequence of β-End 1–31 showing derivatives 1–26 and 1–27. (A) HaloLink-attached σ2Rs were incubated for 30 min at RT in the presence of σ1Rs (100 nM) in 300 μL of 50 mM Tris-HCl (pH 7.4), 0.2% CHAPS, and 2.5 mM CaCl2. After removing the unbound σ1R proteins, the effects of increasing the peptide concentrations on σ1R-σ2R associations were studied. At the end of the incubation, protein complexes bound to HaloLink-σ2R were obtained by centrifugation, washed three times, solubilized in 2× Laemmli buffer containing β-mercaptoethanol, resolved by SDS-PAGE, and analyzed by Western blotting (for more details, see Section 4). This protocol was also used to assess the effect of ligands on (B) σ1R-NR1 C1 and (C) σ1R-BiP associations. Data were compared to that of the control, which was obtained in the absence of ligands. (A–C) Data are the mean ± SD, n = 3. (D) The β-End 1–31 structural models were predicted by Novafold (DNASTAR Lasergene protein v.17, Inc., Madison, WI, USA). Ribbon model: The 3D structure, charge distribution and hydrophobicity map of β-End 1–31 are shown. Positive charges are shown in red and negative charges in blue. Polar surfaces are shown in yellow, and nonpolar surfaces are shown in orange. Linear model: the opioid (1–5) and flexible region (8–11) sequences are shown in green and orange, respectively, and the amphiphilic helix (15–25) is shown in pink.
(§2) The recombinant σ1R (100 nM) was incubated either with Haloprotein (negative control) or together with the immobilized σ2R, NR1 C0-C1-C2 or BiP proteins in 300 µL of a buffer containing 50 mM Tris-HCl (pH 7.4) and 0.2% CHAPS in the presence of 2.5 mM CaCl2 for 30 min at RT. After removal of the unbound σ1R, the agarose-attached complexes were incubated for 30 min with rotation at RT in the presence of increasing concentrations of the ligands in a final reaction volume of 300 µL [50 mM Tris-HCl (pH 7.4), 2.5 mM CaCl2 and 0.2% CHAPS]. Ligands were usually dissolved in aqueous solutions; however, when an organic solvent such as DMSO was required to incorporate, e.g., pregnenolone sulfate, the solvent remained below 1% in the assay buffer. Agarose pellets containing the bound proteins were obtained by centrifugation, washed and resuspended thrice in the presence of 2.5 mM CaCl2, solubilized in 2× Laemmli buffer plus β-mercaptoethanol, and analyzed by Western blotting.
(§3) Because all the assays were performed with recombinant proteins, the immune signals provided a single band of the expected size, which was used for the subsequent densitometry analysis. Accordingly, no other regions of the blots provided information and were routinely excluded from the analysis.
Figure S7. Effect of σ1R agonist/antagonist ligands on σ1R-σ2R heterodimers. (A-C) Agarose (Θ)- attached σ2Rs captured recombinant σ1Rs. After removing unbound σ1R proteins, the Θ-σ2R.σ1R complexes were incubated with a ﬁxed concentration of a selected L1 ligand (indicated in brackets) in the absence and presence of increasing concentrations of competing σ1R ligands as indicated. The σ1Rs that remained attached to the Θ-σ2Rs were evaluated by Western blotting. * Signiﬁcant differences with respect to the control group that was incubated without L1 ligands. ANOVA followed by the Holm-Sidak multiple comparisons test, p < 0.05. For details, see Methods and Figure 6A. Representative blots are […]
Figure S8. Effect of the physiological and nonphysiological sequences of β-End 1-31 and classical σ1R ligands on BiP-σ1R, σ2R-σ1R and NR1 C1-σ1R associations . Agarose-BiP was loaded with σ1Rs, and after the unbound σ1Rs were removed, the agarose-BiP-σ1R complexes were incubated in the absence (control) and presence of increasing concentrations of (A) β-End 1-31 C-terminal physiological derivatives and (B) classical σ1R ligands. C) Agarose-σ2R loaded with σ1Rs was incubated in the […]

σ1R-NR1 C1 = biological target: T1, σ1R-NR1 C1 (Mus musculus, UniProt O55242); test: In vitro σ1R-NR1 C1 association of recombinant proteins (Western blot); type: biochemical, murine; conditions: increasing concentrations; 30 min RT; vs control without ligand
T1 construct: The coding region of the full-length murine σ1R (AF004927); GST (N, cleaved yes); made in house; host or cells: E. coli BL21 (KRX)
T1 sequence (O55242 whole entry): as above
Protocol: as §1, §2, §3
Figure S8. Effect of the physiological and nonphysiological sequences of β-End 1-31 and classical σ1R ligands on BiP-σ1R, σ2R-σ1R and NR1 C1-σ1R associations . […]
D) Agarose-NR1 C1 loaded with […]
σ1Rs were incubated in the absence (control) and with nonphysiological derivatives of β-End 1-31. A-D) The σ1Rs that remained attached to the agarose complexes were evaluated by Western blotting. The […]
(§4) (1 picture or pasted object on this page, not shown here)
Figure S9. Effect of σ1R agonist/antagonist ligands on σ1R-NR1 C1 associations. Θ-Agarose-NR1 C1 was loaded with recombinant σ1Rs. After unbound σ1R proteins were removed, the complexes were incubated with (A) 1 nM β-End 1-31, (B) αN-acetyl β-End 1-31, (C-D) β-End 28-31 in the absence (black columns) and presence of (A) 10 nM or (B-D) increasing concentrations of competing σ1R ligands as indicated. The σ1Rs that remained attached to the Θ-σ2Rs were evaluated by Western blotting. The […]
Prog is progesterone; PregSulfate is pregnenolone sulfate; Nac is […]

σ1R-BiP = biological target: T2, σ1R-BiP (Mus musculus, UniProt O55242); test: In vitro σ1R-BiP association of recombinant proteins (Western blot); type: biochemical
T2 construct: The coding region of the full-length murine σ1R (AF004927); GST (N, cleaved yes); host or cells: E. coli BL21 (KRX) for σ1R
T2 sequence (O55242 whole entry): as above
Protocol: as §1, §2, §3
Figure S8. Effect of the physiological and nonphysiological sequences of β-End 1-31 and classical σ1R ligands on BiP-σ1R, σ2R-σ1R and NR1 C1-σ1R associations . Agarose-BiP was loaded with σ1Rs, and after the unbound σ1Rs were removed, the agarose-BiP-σ1R complexes were incubated in the absence (control) and presence of increasing concentrations of (A) β-End 1-31 C-terminal physiological derivatives and (B) classical σ1R ligands. C) Agarose-σ2R loaded with σ1Rs was incubated in the absence (control) and with nonphysiological derivatives of β-End 1-31. D) Agarose-NR1 C1 loaded with σ1Rs were incubated in the absence (control) and with nonphysiological derivatives of β-End 1-31. A-D) The σ1Rs that remained attached to the agarose complexes were evaluated by Western blotting. The […]
as §4
Figure S10. Effect of σ1R agonist/antagonist ligands on σ1R-BiP associations. Agarose-attached BiP proteins were incubated for 30 min in the presence of recombinant σ1R (100 nM) proteins in 300 μL of 50 mM Tris-HCl (pH 7.4), 0.2% CHAPS, and 2.5 mM CaCl2. After the unbound σ1R proteins were […]

Q: `Cc1c(C(=O)c2cccc3ccccc23)c2cccc3c2n1[C@H](CN1CCOCC1)CO3` [WIN55,212–2] was tested. Which “analgesia of the substance in σ1R−/− mice compared with wild-type” value (shortened to “analgesia … compared with wild-type”) [1] did it give?
A: Its value is “did not significantly change”.

Q: How did the “effect on σ1R-σ2R association” value (σ1R-σ2R) turn out when GGFL [leu-enkephalin 2–5 metabolite] was run?
A: Its value is “disrupted this association”.

Q: How did the “effect on σ1R-σ2R association” value (σ1R-σ2R) turn out when “β-End 2–31: β-End 1–31 without Y1 (GGFMTSEKSQTPLVTLFKNAIIKNAYKKGE; Beta-endorphin; UniProt P01189 238-267, looked up, fragment)” was run?
A: The value was “diminished σ1R-σ2R associations”.

Q: What about the “effect on σ1R-NR1 C1 association” value (σ1R-NR1 C1) of the same compound?
A: Its value is “promoting the σ1R-NR1 C1 association”.

Q: Which “analgesia … compared with wild-type” value [1] does the source give for ([D-Pen2,D-Pen5]enkephalin) [DPDPE] here?
A: The value was “did not significantly change”.

Q: How did the “effect on σ1R-σ2R association” value (σ1R-σ2R) turn out when “YGGFL [leu-enkephalin, leucine-enkephalin 1–5]” was run?
A: Its value is “disrupted this association”.

Q: What about the “effect on σ1R-NR1 C1 association” value (σ1R-NR1 C1) of the same compound?
A: Its value is “dissociated σ1R-NR1 C1 complexes”.

Q: With “β-End 1–16: nonphysiological fragment of β-End 1–31 (YGGFMTSEKSQTPLVT; Beta-endorphin; UniProt P01189 237-252, looked up, fragment)” as the compound, how does the “effect on β-End 1–31 analgesia, nonphysiological fragments” value ([1]; 1 nmol icv 20 min before 0.5 nmol β-End 1–31 icv, 6 mice) read?
A: Its value is “practically did not alter β-End 1–31 analgesia”.

Q: “β-End 1–4: fragment 1–4 of β-End 1–31 (YGGF; Beta-endorphin; UniProt P01189 237-240, looked up, fragment)” was tested. Which “effect on σ1R-NR1 C1 association” value (σ1R-NR1 C1) did it give?
A: Its value is “enhancement”.

Q: What does the source list for “^αN-acetyl β-End 1–27: ^αN-acetylated form of β-End 1–27 (Ac-YGGFMTSEKSQTPLVTLFKNAIIKNAY; UniProt P01189 237-263, looked up, fragment)”?
A: activity at σ1R-BiP against agonists / β-End 1–31 (σ1R-BiP; 1 nM β-End 1–31 with increasing competitor (Figure S10)): antagonist activity; effect on σ1R-BiP association (σ1R-BiP; increasing concentrations, 30 min RT, vs control without ligand): promoted σ1R-BiP complexes

Q: Which “analgesia … compared with wild-type” value [1] does the source give for “([D-Ala2, N-MePhe4, Gly-ol]-enkephalin [DAMGO]” here?
A: Its value is “augmented”.

Q: How did the “effect on σ1R-σ2R association” value (σ1R-σ2R) turn out when “^αN-acetyl leu-enkephalin: chimeric ^αN-acetylated leu-enkephalin” was run?
A: Its value is “protective”.

Q: `CN1CC[C@]23c4c5ccc(O)c4O[C@H]2[C@@H](O)C=C[C@H]3[C@H]1C5` [morphine, morphine sulfate] was tested. Which “analgesia … compared with wild-type” value [1] did it give?
A: Its value is “increased analgesic response”.

Q: For “GGFM [met-enkephalin 2–5 aminopeptidase product]”, which “effect on σ1R-σ2R association” value (σ1R-σ2R) is on record?
A: Its value is “promoted the sigma receptor heterodimer”.

Q: “YGGFM [met-enkephalin, methionine-enkephalin, β-End N-terminal derivative 1–5]” was tested. Which “effect on σ1R-σ2R association” value (σ1R-σ2R) did it give?
A: The value was “promoted the sigma receptor heterodimer”.

Q: And the “effect on σ1R-NR1 C1 association” value (σ1R-NR1 C1)?
A: Its value is “enhancement”.
